{"source": "paper PMC6920808", "about": "“Preclinical Evaluation of UDCA-Containing Oral Formulation in Mice for the Treatment of Wet Age-Related Macular Degeneration” (Pharmaceutics, 2019)", "origin": "cited, not measured here", "key": {"laser-treated rat model": {"tested_on": "laser-treated rat model", "parameters": "method as in PMID 20565307", "settings": "intraperitoneally injected, ref [4]"}, "retina": {"tested_on": "retina", "parameters": "method as in earlier work", "settings": "intravitreally injected, dose higher than 5 μg of TUDCA (5 mg/mL), Balb/C mice, ref [33]"}, "[1]": {"parameters": "method as in PMID 6479887, PMID 30319399", "settings": "ref [17],[18]"}}, "data": [{"smiles": "C[C@H](CCC(=O)NCCS(=O)(=O)O)[C@H]1CC[C@H]2[C@@H]3[C@@H](O)C[C@@H]4C[C@H](O)CC[C@]4(C)[C@H]3CC[C@]12C", "note": "[TUDCA, tauroursodeoxycholic acid]", "values": [{"measurement": "CNV size and vascularity", "setting": "laser-treated rat model", "value": "reduction"}, {"measurement": "early VEGF elevation in the retina", "setting": "laser-treated rat model", "value": "effectively suppress"}, {"measurement": "A- and B-wave amplitudes in the ERG and outer nuclear layer thickness", "setting": "retina", "value": "reduced"}]}, {"smiles": "C[C@H](CCC(=O)O)[C@H]1CC[C@H]2[C@@H]3[C@@H](O)C[C@@H]4C[C@H](O)CC[C@]4(C)[C@H]3CC[C@]12C", "note": "[UDCA, 3α,7β-dihydroxy-5β-cholanoic acid]", "values": [{"measurement": "CNV size and vascularity", "setting": "laser-treated rat model", "value": "reduction"}, {"measurement": "early VEGF elevation in the retina", "setting": "laser-treated rat model", "value": "effectively suppress"}, {"measurement": "pKa", "setting": "[1]", "value": "around 5.0"}]}]}
